Reference: patent US10385065B2, “Antibacterial compounds” (priority 2014, dated 2019)
Values after ≈ are worked out from the molar mass of the structure shown. Where two headings read alike, the source gives them in different places.

Key:
Format in all cases: cell-based
[1] = system: Staphylococcus aureus ATCC 29213; experiment: MIC, broth microdilution, S. aureus ATCC 29213
[2] = system: Escherichia coli ATCC 25922; experiment: MIC, broth microdilution, E. coli ATCC 25922; conditions: ATCC25922, Table 1, wild type strain
[3] = system: S. aureus NRS482 MRSA FQ resistant; experiment: MIC, S. aureus NRS482; conditions: Staphylococcus aureus; Table 2
[4] = system: Haemophilus influenzae ATCC 49247; experiment: MIC, H. influenzae ATCC 49247; conditions: ATCC49247, Table 4
[5] = system: human hepatic cell line (HepG2 ATCC HB-8065); experiment: Human cell viability assay (CellTiter-Glo), HepG2; conditions: HepG2, 24 h incubation, tested over 1-128 μg/mL, read-out: IC50 values against HepG2
Method: Compounds are assessed for potential non-specific cytotoxic effects against a human hepatic cell line (HepG2 ATCC HB-8065). HepG2 cells are seeded at 20,000 cells/well in 96-well microtitre plates in minimal essential medium (MEM) supplemented with a final concentration of 10% FBS and 1 mM sodium pyruvate. After 24 h compound dilutions are prepared in Dulbecco's minimum essential media (DMEM) supplemented with final concentrations of 0.001% FBS, 0.3% bovine albumin and 0.02% HEPES and added to cells. Compounds are tested in two-fold serial dilutions over a final concentration range of 1-128 μg/mL in a final DMSO concentration of 1% vol/vol. Chlorpromazine is used as a positive control. Cells are incubated with compound at 37° C. and 5% CO2 for a further 24 h, after which time the CellTiter-Glo reagent (Promega) is added. Luminescence is measured on a BMG Omega plate reader. Data are analysed using GraphPad Prism software to determine the concentration of compound that inhibits cell viability by fifty percent (IC50).

[6] = system: S. aureus NRS127 MRSA LZD resistant; experiment: MIC, S. aureus NRS127; conditions: Staphylococcus aureus; Table 2
[7] = system: Enterococcus faecium ATCC 19434; experiment: MIC, E. faecium ATCC 19434; conditions: ATCC19434, Table 2
[8] = system: S. aureus (MRSA) ATCC 43300; experiment: MIC, S. aureus ATCC 43300; conditions: Staphylococcus aureus; Table 2; read-out: MIC S. aureus (MRSA) ATCC 43300 Heterogeneous MRSA strain
S. aureus NRS1 MRSA = experiment: MIC, S. aureus NRS1; conditions: Staphylococcus aureus; Table 2; read-out: MIC S. aureus NRS1 MRSA AMG & TET resistant
[9] = ATCC29213, Table 1, wild type strain, read-out: MIC S. aureus ATCC 29213
[10] = ATCC 29213 / MSSA, Table 2, read-out: MIC S. aureus (MSSA) ATCC 29213 CLSI control strain

| MIC [1, 9] [µg/mL] | MIC [1, 10] [µg/mL] | MIC [2] [µg/mL] | MIC [3] [µg/mL] | MIC [4] [µg/mL] | IC50 [5] [µg/mL] | MIC [6] [µg/mL] | MIC [7] [µg/mL] | MIC [8] [µg/mL] | MIC (S. aureus NRS1 MRSA) [µg/mL] | Compound |
| --- | --- | --- | --- | --- | --- | --- | --- | --- | --- | --- |
| < 1 | < 1 | 10 to 100 (≈ 23.6 to 236 µM) | 1 to 10 (≈ 2.36 to 23.6 µM) | 1 to 10 (≈ 2.36 to 23.6 µM) | 10 to 100 (≈ 23.6 to 236 µM) |  |  |  |  | Cc1c(-c2cc(F)c(N)cc2F)ccc2c3oc(CN(C)C)nc3c(=O)n(C3CC3)c12 [Compound 101, 7-(4-amino-2,5-difluoro-phenyl)-5-cyclopropyl-2-[(dimethylamino)methyl]-6-methyl-oxazolo[4,5-c]quinolin-4-one] |
| < 1 | < 1 | 10 to 100 (≈ 26 to 260 µM) |  | < 1 | 10 to 100 (≈ 26 to 260 µM) |  | > 100 |  |  | Cc1nc2c(=O)n(C3CC3)c3cc(-c4cc(F)c(N)cc4F)c(F)cc3c2o1 [Compound 79, 7-(4-amino-2,5-difluoro-phenyl)-5-cyclopropyl-8-fluoro-2-methyl-oxazolo[4,5-c]quinolin-4-one] |
| < 1 | < 1 | 1 to 10 (≈ 2.52 to 25.2 µM) |  | 1 to 10 (≈ 2.52 to 25.2 µM) | > 100 |  | > 100 |  |  | Cc1nc2c(=O)n(C3CC3)c3c(C)c(-c4cc(F)c(CO)cc4F)ccc3c2o1 [Compound 34, 5-cyclopropyl-7-[2,5-difluoro-4-(hydroxymethyl)phenyl]-2,6-dimethyl-oxazolo[4,5-c]quinolin-4-one] |
| < 1 | < 1 | 1 to 10 (≈ 2.86 to 28.6 µM) |  | < 1 | 10 to 100 (≈ 28.6 to 286 µM) |  | > 100 |  |  | Cc1c(-c2ccc(N)cc2F)ccc2c3ocnc3c(=O)n(C3CC3)c12 [Compound 5, 7-(4-amino-2-fluoro-phenyl)-5-cyclopropyl-6-methyl-oxazolo[4,5-c]quinolin-4-one] |
| < 1 | < 1 | > 100 |  | 1 to 10 (≈ 2.72 to 27.2 µM) | 10 to 100 (≈ 27.2 to 272 µM) |  | > 100 |  |  | Cc1c(-c2cc(F)c(N)c(F)c2)ccc2c3ocnc3c(=O)n(C3CC3)c12 [Compound 19] |
| < 1 | < 1 | 1 to 10 | < 1 | 1 to 10 | > 100 |  |  |  |  | CC(=O)OCc1nc2c(=O)n(C3CC3)c3c(C)c(-c4cc(F)c(N)cc4F)ccc3c2o1 [Compound 98, [7-(4-amino-2,5-difluorophenyl)-5-cyclopropyl-6-methyl-4-oxo-4H,5H-[1,3]oxazolo[4,5-c]quinolin-2-yl]methyl acetate] |
| < 1 | < 1 | 10 to 100 (≈ 25.6 to 256 µM) |  | 1 to 10 (≈ 2.56 to 25.6 µM) | > 100 |  | > 100 |  |  | Cc1nc2c(=O)n(C3CC3)c3c(C)c(-c4cc(F)c(C#N)cc4F)ccc3c2o1 [Compound 24] |
| < 1 | < 1 | 1 to 10 (≈ 2.52 to 25.2 µM) |  | 1 to 10 (≈ 2.52 to 25.2 µM) | 10 to 100 (≈ 25.2 to 252 µM) |  | 10 to 100 (≈ 25.2 to 252 µM) |  |  | Cc1c(-c2cc(F)c(C(C)O)cc2F)ccc2c3ocnc3c(=O)n(C3CC3)c12 (centres unmarked) [Compound 22, 5-cyclopropyl-7-[2,5-difluoro-4-(1-hydroxyethyl)phenyl]-6-methyl-oxazolo[4,5-c]quinolin-4-one] |
| < 1 | < 1 | > 100 |  | 10 to 100 (≈ 26.8 to 268 µM) | 10 to 100 (≈ 26.8 to 268 µM) |  | > 100 |  |  | Cc1nc2c(=O)n(C3CC3)c3c(C)c(-c4ccc(C#N)cc4F)ccc3c2o1 [Compound 33, 4-(5-cyclopropyl-2,6-dimethyl-4-oxo-oxazolo[4,5-c]quinolin-7-yl)-3-fluoro-benzonitrile] |
| < 1 | < 1 | 1 to 10 (≈ 2.78 to 27.8 µM) |  | 1 to 10 (≈ 2.78 to 27.8 µM) | 10 to 100 (≈ 27.8 to 278 µM) |  | > 100 |  |  | Cc1nc2c(=O)n(C3CC3)c3c(C)c(-c4ccc(CN)cc4)ccc3c2o1 [Compound 9, 7-[4-{aminomethyl)phenyl]-5-cyclopropyl-2,6-dimethyl-oxazolo[4,5-c]quinolin-4-one] |
| < 1 | < 1 | 1 to 10 (≈ 2.44 to 24.4 µM) | 1 to 10 (≈ 2.44 to 24.4 µM) | 1 to 10 (≈ 2.44 to 24.4 µM) | 10 to 100 (≈ 24.4 to 244 µM) |  | 10 to 100 (≈ 24.4 to 244 µM) | < 1 | 1 to 10 (≈ 2.44 to 24.4 µM) | Cc1nc2c(=O)n(C3CC3)c3c(C)c(-c4cc(F)c(C(N)=O)cc4F)ccc3c2o1 [Compound 35, 4-(5-cyclopropyl-2,6-dimethyl-4-oxo-oxazolo[4,5-c]quinolin-7-yl)-2,5-difluoro-benzamide] |

Further lines, the compound ahead of its results:

| Compound | MIC [1, 9] [µg/mL] | MIC [1, 10] [µg/mL] | MIC [2] [µg/mL] | MIC [3] [µg/mL] | MIC [4] [µg/mL] | IC50 [5] [µg/mL] | MIC [6] [µg/mL] | MIC [7] [µg/mL] | MIC [8] [µg/mL] | MIC (S. aureus NRS1 MRSA) [µg/mL] |
| --- | --- | --- | --- | --- | --- | --- | --- | --- | --- | --- |
| Cc1c(-c2ccc3[nH]cnc3c2)ccc2c3ocnc3c(=O)n(C3CC3)c12 [Compound 15, 7-(1H-benzimidazol-5-yl)-5-cyclopropyl-6-methyl-oxazolo[4,5-c]quinolin-4-one] | < 1 | < 1 | 10 to 100 (≈ 28.1 to 281 µM) | < 1 | 1 to 10 (≈ 2.81 to 28.1 µM) |  | < 1 |  |  |  |
| Cc1c(-c2ccc(C(=O)NCC(=O)O)cc2)ccc2c3ocnc3c(=O)n(C3CC3)c12 [Compound 31, 2-[{4-(5-cyclopropyl-6-methyl-4-oxo-oxazolo[4,5-c]quinolin-7-yl)benzoyl}amino]acetic acid] | > 100 | > 100 | > 100 | > 100 | > 100 |  |  |  |  |  |
| NCC1CCN(c2nc3c(cc2F)c2ocnc2c(=O)n3C2CC2)C1 (centres unmarked) [Compound 81, 7-[3-(aminomethyl)pyrrolidin-1-yl]-5-cyclopropyl-8-fluoro-oxazolo[4,5-c][1,8]naphthyridin-4-one] | 1 to 10 (≈ 2.91 to 29.1 µM) | 1 to 10 (≈ 2.91 to 29.1 µM) | 1 to 10 (≈ 2.91 to 29.1 µM) |  | 1 to 10 (≈ 2.91 to 29.1 µM) | > 100 |  | > 100 |  |  |
| Cc1nc2c(=O)n(C3CC3)c3c(C)c(-c4ccc(C(C)(C)N)cc4)ccc3c2o1 [Compound 28, 7-[4-(2-aminopropan-2-yl)phenyl]-5-cyclopropyl-2,6-dimethyloxazolo[4,5-c]quinolin-4-one] | 10 to 100 (≈ 25.8 to 258 µM) | 1 to 10 (≈ 2.58 to 25.8 µM) | 10 to 100 (≈ 25.8 to 258 µM) |  | 1 to 10 (≈ 2.58 to 25.8 µM) | 10 to 100 (≈ 25.8 to 258 µM) |  | 10 to 100 (≈ 25.8 to 258 µM) |  |  |
| Cc1nc2c(=O)n(C3CC3)c3cc(N4CC[C@@H](C(C)(C)N)C4)c(F)cc3c2o1 [Compound 50, 7-[(3R)-3-(2-aminopropan-2-yl)pyrrolidin-1-yl]-5-cyclopropyl-8-fluoro-2-methyl-oxazolo[4,5-c]quinolin-4-one] | 1 to 10 (≈ 2.6 to 26 µM) | 1 to 10 (≈ 2.6 to 26 µM) | 1 to 10 (≈ 2.6 to 26 µM) |  | 10 to 100 (≈ 26 to 260 µM) | 10 to 100 (≈ 26 to 260 µM) |  | > 100 |  |  |
| Cc1c(-c2ccc3nonc3c2)ccc2c3ocnc3c(=O)n(C3CC3)c12 [Compound 46, 7-(2,1,3-benzoxadiazol-5-yl)-5-cyclopropyl-6-methyl-oxazolo[4,5-c]quinolin-4-one] | < 1 | < 1 | 1 to 10 (≈ 2.79 to 27.9 µM) |  | > 100 | 10 to 100 (≈ 27.9 to 279 µM) |  | > 100 |  |  |
| Cc1nc2c(=O)n(C3CC3)c3c(C)c(-c4ccc5[nH]ncc5c4)ccc3c2o1 [Compound 10, 5-cyclopropyl-7-(1H-indazol-5-yl)-2,6-dimethyl-oxazolo{4,5-c]quinolin-4-one] | < 1 | < 1 | > 100 |  | 10 to 100 (≈ 27 to 270 µM) | 10 to 100 (≈ 27 to 270 µM) |  | > 100 |  |  |
| O=c1c2ncoc2c2cc(F)c(-c3ccc(O)cc3)cc2n1C1CC1 [Compound 64, 5-cyclopropyl-8-fluoro-7-(4-hydroxyphenyl)oxazolo[4,5-c]quinolin-4-one] | < 1 | < 1 | 10 to 100 (≈ 29.7 to 297 µM) |  | < 1 | 10 to 100 (≈ 29.7 to 297 µM) |  | > 100 |  |  |
| NC(=O)c1ccc(-c2cc3c(cc2F)c2ocnc2c(=O)n3C2CC2)cc1 [Compound 58, 4-(5-cyclopropyl-8-fluoro-4-oxo-oxazolo[4,5-c]quinolin-7-yl)benzamide] | 1 to 10 (≈ 2.75 to 27.5 µM) | 1 to 10 (≈ 2.75 to 27.5 µM) | 10 to 100 (≈ 27.5 to 275 µM) |  | 1 to 10 (≈ 2.75 to 27.5 µM) | 10 to 100 (≈ 27.5 to 275 µM) |  | > 100 |  |  |
| Cc1nc2c(=O)n(C3CC3)c3c(C)c(-c4ccc(C(=O)O)cc4)ccc3c2o1 [Compound 8, 4-(5-cyclopropyl-2,6-dimethyl-4-oxo-oxazolo[4,5-c]quinolin-7-yl)benzoic acid] | 10 to 100 (≈ 26.7 to 267 µM) | > 100 | > 100 |  | 1 to 10 (≈ 2.67 to 26.7 µM) | > 100 |  | > 100 |  |  |
| Cc1nc2c(=O)n(C3CC3)c3c(C)c(-c4cn[nH]c4)ccc3c2o1 [Compound 29, 5-cyclopropyl-2,6-dimethyl-7-(1H-pyrazol-4-yl)oxazolo[4,5-c]quinolin-4-one] | 1 to 10 (≈ 3.12 to 31.2 µM) | 1 to 10 (≈ 3.12 to 31.2 µM) | 10 to 100 (≈ 31.2 to 312 µM) |  | 1 to 10 (≈ 3.12 to 31.2 µM) | > 100 |  | > 100 |  |  |
